The target in the experiment is Human DGAT2 (Homo sapiens (Human), UniProt Q96PD7). In words: DGAT2 Enzymatic Activity Assay (triolein formation, LC/MS/MS). It is filed as biochemical. As to conditions: hDGAT2 Sf-9 membrane prep; 25 μM diolein, 10 μM oleoyl-CoA; room temperature. How it is done: Sf-9 insect cells were maintained in Grace's insect cell culture medium with 10% heated-inactivated fetal bovine serum, 1% Pluronic F-68 and 0.14 μg/m Kanamycine sulfate in Erlenmeyer flasks at 28° C. in a shaker incubator. After infection with untagged hDGAT2 baculovirus at multiplicity of infection (MOI) 0.1 for 48 hours, cells were harvested. Cell pellets were suspended in buffer containing 10 mM Tris-HC (pH 7.5), 1 mM EDTA (pH 8.0), 250 mM sucrose and Complete Protease Inhibitor Cocktail (Roche Diagnostics Corp., Indianapolis, Ill.), and sonicated on ice. Membrane fractions were isolated by ultracentrifugation (100,000×g pellet), resuspended in the same buffer, and frozen (−80° C.) for later use. The protein concentration was determined with the BCA Protein Assay kit (Pierce Biotechnology Inc., Rockford, Ill.). Expression of protein levels was analyzed by immunoblotting with goat polyclonal DGAT2 antibody C-15 and donkey anti-goat IgG HRP (Santa Cruz Biotechnology, Inc., Santa Cruz, Calif.) followed by detection with ECL reagent (GE Healthcare, Piscataway, N.J.).
Chain of Human DGAT2 (Q96PD7 whole entry): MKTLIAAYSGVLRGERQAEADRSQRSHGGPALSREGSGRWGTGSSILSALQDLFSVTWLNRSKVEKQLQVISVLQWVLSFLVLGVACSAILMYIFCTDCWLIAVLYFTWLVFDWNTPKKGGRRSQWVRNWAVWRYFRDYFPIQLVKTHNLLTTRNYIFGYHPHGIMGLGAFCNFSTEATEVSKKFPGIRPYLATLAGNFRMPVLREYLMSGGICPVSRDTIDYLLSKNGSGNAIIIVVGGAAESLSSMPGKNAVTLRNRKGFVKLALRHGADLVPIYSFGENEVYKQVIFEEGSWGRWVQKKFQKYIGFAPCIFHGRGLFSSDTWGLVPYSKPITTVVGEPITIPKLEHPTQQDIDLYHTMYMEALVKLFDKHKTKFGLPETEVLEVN
LC/MS/MS analyses were performed using Thermal Fisher's LX4-TSQ Vantage system. This system consists of an Agilent binary high-performance liquid chromatography (HPLC) pumps and a TSQ Vantage triple quadrupole MS/MS instrument. For each sample, 2 μL samples from the top organic layer of in-plate liquid-liquid extraction were injected onto a Thermo Betabasic C4 column (2.1 mm×20 mm, 5 μm particle size). The samples were then eluted using the following conditions; mobile phase: MeOH/water with 0.1% ammonium format=92/8 (v/v), flow rate: 1 mL/min, temperature: 25 C. Data was acquired in positive mode using a heated electrospray ionization (HESI) interface. The operational parameters for the TSQ Vantage MS/MS instrument were a spray voltage of 3000 V, capillary temperature of 280° C., vaporizer temperature 400° C., shealth gas 60 arbitrary unit, Aux gas 40 arbitrary units, S-lens 113 and collision gas 0.16 Pascals. […] (SRM) chromatograms of triolein (Q1: 902.9>Q3:602.3) and internal standard ([…]) were collected for 40 sec. The peak area was integrated by Xcalibur Quan software. The ratio between the triolein generated in the reaction and spiked in internal standard was used to generate percentage inhibition and IC50 values. Compound percentage inhibition was calculated by the following formula: Inhibition %=1−[(compound response−low control)/(high control−low control)]×100%. Potent compounds were titrated and IC50 were calculated by 4 parameter sigmoidal curve fitting formula.
DGAT2 activity was determined by measuring the amount of enzymatic product triolein (1,2,3-Tri(cis-9-octadecenoyl)glycerol) using the membrane prep mentioned above. The assay was carried out in deep well 384 plates in a final volume of 40 μL at room temperature. The assay mixture contained the following: assay buffer (100 mM Tris.Cl, pH 7.0, 20 mM MgCl2, 5% ethanol), 25 μM of diolein, 10 μM of oleoyl-CoA and 10 ng/μL of DGAT2 membrane.
By IC50 is commonly meant the concentration at which inhibition is half-maximal. Consider `COc1cccc(-c2nn(-c3ccc(F)cc3)c3cc(C(=O)NC4CCS(=O)(=O)C4)ccc23)c1` (single isomer, unassigned) [Example 131-A, N-(1,1-dioxidotetrahydrothiophen-3-yl)-1-(4-fluorophenyl)-3-(3-methoxyphenyl)-1H-indazole-6-carboxamide], for which half-maximal inhibition (IC50) required 3 nM.

Consider `CC1(NC(=O)c2ccc3c(-c4cccc(Cl)c4)nn(-c4ccc(F)cc4)c3c2)CCS(=O)(=O)C1` (single isomer, unassigned) [Example 158-A, 3-(3-chlorophenyl)-1-(4-fluorophenyl)-N-(3-methyl-1,1-dioxidotetrahydrothiophen-3-yl)-1H-indazole-6-carboxamide], for which half-maximal inhibition (IC50) required 31 nM.

`O=C(N[C@@H]1CCCC[C@@H]1O)c1ccc2c(-c3ccccc3Cl)nn(-c3ccc(F)cc3)c2c1` (racemic) [Example 66] showed an IC50 of 68 nM.

`O=C(NC1(CO)CCSC1)c1ccc2c(-c3ccccc3Cl)nn(-c3ccc(F)cc3)c2c1` (racemic) [Example 98, 3-(2-chlorophenyl)-1-(4-fluorophenyl)-N-[3-(hydroxymethyl)tetrahydrothiophen-3-yl]-1H-indazole-6-carboxamide] yielded an IC50 of 45 nM.

`CCC(CO)NC(=O)c1ccc2c(-c3ccccc3Cl)nn(-c3ccc(F)cc3)c2c1` (racemic) [Example 65, 3-(2-chlorophenyl)-1-(4-fluorophenyl)-N-[1-(hydroxyinethyl)propyl]-1H-indazole-6-carboxamide]: the concentration for half-maximal inhibition (IC50) turned out to be 170 nM.

Compound `O=C(N[C@H]1CCC[C@H]1O)c1ccc2c(-c3ccccc3Cl)nn(-c3ccc(F)cc3)c2c1` [Example 96, 3-(2-chlorophenyl)-1-(4-fluorophenyl)-N-[(1S,2R)-2-hydroxycyclopentyl]-1H-indazole-6-carboxamide] returned a 50% inhibitory concentration (IC50) of 43 nM.

In turn, `Cn1ccc(-n2nc(-c3ccccc3Cl)c3ccc(C(=O)NC4(C)CCS(=O)(=O)C4)cc32)n1` (racemic) [Example 184, 3-(2-chlorophenyl)-N-(3-methyl-1,1-dioxidotetrahydrothiophen-3-yl)-1-(1-methyl-1H-pyrazol-3-yl)-1H-indazole-6-carboxamide] came in with a concentration for half-maximal inhibition (IC50) of 201 nM.

Compound `Cc1nc(C(C)NC(=O)c2ccc3c(-c4ccccc4Cl)nn(-c4ccc(F)cc4)c3c2)no1` (racemic) [Example 41, 3-(2-chlorophenyl)-1-(4-fluorophenyl)-N-[1-(5-methyl-1,2,4-oxadiazol-3-yl)ethyl]-1H-indazole-6-carboxamide] came in with a half-inhibitory concentration (IC50) of 519 nM.

In turn, `COc1ccc(-c2nn(-c3ccc(F)cc3)c3cc(C(=O)NC4(C)CCS(=O)(=O)C4)ccc23)cn1` (single isomer, unassigned) [Example 155-A, 1-(4-fluorophenyl)-3-(6-methoxypyridin-3-yl)-N-(3-methyl-1,1-dioxidotetrahydrothiophen-3-yl)-1H-indazole-6-carboxamide] returned an IC50 of 353 nM.

Compound `CC(C)n1nc(-c2ccccc2Cl)c2ccc(C(=O)NC3CCS(=O)(=O)C3)cc21` (stereo not shown) [Example 169, 3-(2-chlorophenyl)-N-(1,1-dioxidotetrahydrothiophen-3-yl)-1-(1-methylethyl)-1H-indazole-6-carboxamide] yielded an IC50 of 364 nM.

For the compound `C[C@H](NC(=O)c1ccc2c(-c3ccccc3Cl)nn(-c3ccc(F)cc3)c2c1)c1cnc(C(F)(F)F)nc1` [Example 50, 3-(2-chlorophenyl)-1-(4-fluorophenyl)-N-{(1S)-1-[2-(trifluoromethyl)pyrimidin-5-yl]ethyl}-1H-indazole-6-carboxamide], the half-maximal inhibitory concentration (IC50) stood at 34 nM.

Regarding `O=C(NC1COC1)c1ccc2c(-c3ccccc3Cl)nn(-c3ccc(F)cc3)c2c1` [Example 21, 3-(2-chlorophenyl)-1-(4-fluorophenyl)-N-oxetan-3-yl-1H-indazole-6-carboxamide], the 50% inhibitory concentration (IC50) was 873 nM.

As for `Cn1cc(C(C)(C)NC(=O)c2ccc3c(-c4ccccc4Cl)nn(-c4ccc(F)cc4)c3c2)cn1` [Example 16, 3-(2-chlorophenyl)-1-(4-fluorophenyl)-N-[1-methyl-1-(1-methyl-1H-pyrazol-4-yl)ethyl]-1H-indazole-6-carboxamide], the IC50 is 120 nM.

Compound `CC(C)(C)OC(=O)N1CCS(=O)(=O)CC(NC(=O)c2ccc3c(-c4ccccc4Cl)nn(-c4ccc(F)cc4)c3c2)C1` (racemic) [Example 91, tert-butyl 6-({[3-(2-chlorophenyl)-1-(4-fluorophenyl)-1H-indazol-6-yl]carbonyl}amino)-1,4-thiazepane-4-carboxylate 1,1-dioxide] returned a half-inhibitory concentration (IC50) of 572 nM.

For the compound `CC1(NC(=O)c2ccc3c(-c4cccc(-n5cccn5)c4)nn(-c4ccc(F)cc4)c3c2)CCS(=O)(=O)C1` (racemic) [Example 165, 1-(4-fluorophenyl)-N-(3-methyl-1,1-dioxidotetrahydrothiophen-3-yl)-3-[3-(1H-pyrazol-1-yl)phenyl]-1H-indazole-6-carboxamide], half-maximal inhibition (IC50) required 7 nM.

`O=C(NC1CCS(=O)(=O)C1)c1ccc2c(-c3cccc(Cl)c3Cl)nn(-c3ccc(F)cc3)c2c1` (single isomer, unassigned) [Example 130-A, 3-(2,3-dichlorophenyl)-N-(1,1-dioxidotetrahydro-thiophen-3-yl)-1-(4-fluorophenyl)-1H-indazole-6-carboxamide] yielded a 50% inhibitory concentration (IC50) of 3.6 nM.

Compound `CC1(NC(=O)c2ccc3c(-c4ccccc4Cl)nn(-c4cccnc4)c3c2)CCS(=O)(=O)C1` (racemic) [Example 189, 3-(2-chlorophenyl)-N-(3-methyl-1,1-dioxidotetrahydrothiophen-3-yl)-1-pyridin-3-yl-1H-indazole-6-carboxamide] came in with an IC50 of 409 nM.

Regarding `O=C(NC(CO)C1CC1)c1ccc2c(-c3ccccc3Cl)nn(-c3ccc(F)cc3)c2c1` (racemic) [Example 78, 3-(2-chlorophenyl)-N-(1-cyclopropyl-2-hydroxyethyl)-1 (4-fluorophenyl)-1H-indazole-6-carboxamide], the concentration for half-maximal inhibition (IC50) turned out to be 353 nM.

Compound `O=C(c1ccc2c(-c3ccccc3Cl)nn(-c3ccc(F)cc3)c2c1)N1CC2CC1CS(=O)(=O)C2` (racemic) [Example 23, 3-(2-chlorophenyl)-6-[(3,3-dioxido-3-thia-6-azabicyclo[3.2.1]oct-6-yl)carbonyl]-1-(4-fluorophenyl)-1H-indazole] had an IC50 of 403 nM.

In turn, `O=C(NC1CCS(=O)(=O)C1)c1ccc2c(-c3ccccc3Cl)nn(-c3ccc(F)cc3)c2c1` (single isomer, unassigned) [Example 2-A] gave an IC50 of 12 nM.

Compound `O=C(NC1CCNC1=O)c1ccc2c(-c3ccccc3Cl)nn(-c3ccc(F)cc3)c2c1` (racemic) [Example 52, 3-(2-chlorophenyl)-1-(4-fluorophenyl)-N-(2-oxopyrrolidin-3-yl)-1H-indazole-6-carboxamide] yielded an IC50 of 413 nM.

In the case of `C[C@@H](NC(=O)c1ccc2c(-c3ccccc3Cl)nn(-c3ccc(F)cc3)c2c1)c1ccc(C(F)(F)F)nc1` [Example 11, 3-(2-chlorophenyl)-1-(4-fluorophenyl)-N-{(1R)-1-[6-(trifluoromethyl)pyridin-3-yl]ethyl}-1H-indazole-6-carboxamide], the half-maximal inhibitory concentration (IC50) amounted to 38 nM.

`N#Cc1ccc(Cl)c(-c2nn(-c3ccc(F)cn3)c3cc(C(=O)NC4CCS(=O)(=O)C4)ccc23)c1` (single isomer, unassigned) [Example 127-A, 3-(2-chloro-5-cyanophenyl)-N-(1,1-dioxidotetrahydrothiophen-3-yl)-1-(5-fluoropyridin-2-yl)-1H-indazole-6-carboxamide] showed an IC50 of 8.2 nM.

Regarding `CC1(NC(=O)c2ccc3c(-c4cccc(C5CC5)c4)nn(-c4ccc(F)cc4)c3c2)CCS(=O)(=O)C1` (single isomer, unassigned) [Example 145-A, 3-(3-cyclopropylphenyl)-1-(4-fluorophenyl)-N-(3-methyl-1,1-dioxidotetrahydrothiophen-3-yl)-1H-indazole-6-carboxamide], the IC50 was 2.1 nM.

On to `COc1cc(-c2nn(-c3ccc(F)cc3)c3cc(C(=O)NC4(C)CCS(=O)(=O)C4)ccc23)c(Cl)cn1` (single isomer, unassigned) [Example 141-A, 3-(5-chloro-2-methoxypyridin-4-yl)-1-(4-fluorophenyl)-N-(3-methyl-1,1-dioxidotetrahydrothiophen-3-yl)-1H-indazole-6-carboxamide], for which the IC50 worked out at 4.8 nM.

The record behind these values is patent US11104690B2, “Indazole derivatives useful as inhibitors of diacylglyceride O-acyltransferase 2” (Merck Sharp & Dohme Corp., priority 2016, dated 2021).
